Here are results for 3 compounds from US20180021294A1, “Ephrin Receptor A2 (EPHA2)-Targeted Docetaxel-Generating Nano-Liposome Compositions” (Merrimack Pharmaceuticals, Inc., priority 2016, published 2018).

One data set relates to MDA-MB-231 xenograft. Briefly: Drug biodistribution in MDA-MB-231 xenograft model. It counts as in vivo, mice. To be noted: after 40scFv-ILs-DTXp3 50 mpk; tumor vs liver and spleen. The text has this:
Each group consists of 3 animals. “Mpk” stand for mg of the drug per kg animal body weight.
The animals received one tail vein injection of 40scFv-ILs-DTXp3 at 50 mpk or free docetaxel at 10 mpk. At each time point, animals were sacrificed and tumor, liver and spleen were collected and flash frozen.
All tissue samples were thawed, weighed, and then mechanically homogenized using a Bullet Blender (Next Advance, Inc., Averill Park, N.Y.) in a solution of 40% acetonitrile containing 0.25% trifluoroacetic acid. The acid was included in the solvent for pH stabilization of Compound 3. […]
The homogenized tissue samples were analyzed utilizing two bioanalytical assays to individually measure Compound 3 and DTX. […] The analytes, Compound 3 and DTX, were detected in both assays by multiple reaction monitoring (MRM) in positive ion mode using electrospray ionization. The homogenized tissue samples were quantitated for Compound 3 and DTX using extracted calibration standards and quality control (QC) samples prepared by spiking Compound 3 or DTX into an acidified plasma matrix, which is a 3:2 mixture of female CD-1 lithium heparinized mouse plasma (Bioreclamation, LLC, Westbury, N.Y.) and 200 mM sodium phosphate buffer (pH 2.5). […]

A short description of data set [1]: Hydrolysis in buffer at 37° C., % DTX formation by HPLC. It counts as physicochemical. The protocol:
A volume of a 10 mg/mL solution of drug in DMSO as needed to provide the desired concentration (typically 16 p1 to yield a 80 μg/mL solution) is placed in a glass test tube or 4 mL vial. Additional DMSO may also be added (e.g. 64 μL when using 164 of drug solution) to yield a final total DMSO concentration of 4%. The DMSO solutions are mixed by brief vortexing, and then 2 mL (20 mM) HEPES buffer for pH 7.5 and 2 mL of (20 mM) phosphate buffer for pH 2.5 is added and the mixture is vortexed again. The initial pH may be adjusted by addition of HCl or NaOH.
Then 100 μLaliquots of the buffer solution of drug are transferred into HPLC vials and incubated in a 37° C. water bath. The remaining solution is also incubated at 37° C. in 4 mL vials for monitoring of pH.
At each time point 900 μL of 0.1% trifluoroacetic acid (TFA) in acetonitrile (ACN) is added to the HPLC vial and the contents are vortexed. The vials are then placed in an autosampler rack at 4° C. for HPLC analysis.
Time zero data points are typically obtained from a solution of 4 μL DMSO stock in 5 mL of 0.1% TFA/ACN (8 μg/mL).
HPLC analysis is performed on a SYNERGI 4 micron Polar RP-80A, 250×4.6 mm column, using a flow rate of 1 mL/min, a 50 μL injection volume, column temperature of 25° C. and with UV detection at 227 nm. Most compounds are analyzed using a 13 min gradient (Method A) from 30 to 66% acetonitrile in aqueous 0.1% TFA, followed by a 1 min gradient back to 30% and a hold at 30% for 6 minutes. If the retention time is too long for this method, a 20 min gradient (Method B) of 30 to 90% acetonitrile, followed by a 1 min return to 30% and held for 9 min at 30% is employed.
The extent of hydrolysis is reported in Table 7 below as the % DTX formation based on relative peak areas.

Data set [2] can be described thus: In vivo tolerability in Swiss Webster mice. To be noted: IV. The text has this: Swiss Webster homozygous female mice (5-6 week old) were obtained from Charles River Laboratory. The animals received tail vein injections, at the intervals of 7 days of tested compound at tested dose (Table 5: Experimental design).
Animal weight and performance status score were monitored based on clinical observation of the mice three to four times a week (clinical observations table). Animals that experience severe toxicity are euthanized according to IACUC protocol. If more than 30% of the mice experience severe toxicity the tested dose is deemed not tolerated.

A further data set deals with SUM-159 xenograft. To be noted: mouse, in vivo. The text has this:
The animals received four tail vein injections, at the intervals of 7 days.
The tumor progression was monitored by palpation and caliper measurements of the tumors along the largest (length) and smallest (width) axis twice a week.

A short description of data set [3]: Coagulation parameters (PT, APTT, fibrinogen) in rats. It counts as in vivo, Sprague Dawley rats. To be noted: 10 mg/kg, end of study (Day 30), vs vehicle control.
Description: Blood samples collected at end of study from all the tested groups were analyzed for coagulation-related parameters including: Prothrombin time (PT), activated partial thromboplastin time (APTT) and fibrinogen levels.
A short description of data set [4]: Chronic tolerability studies. As to conditions: in vivo.
Description: Chronic tolerability studies were performed in rodent and non-rodent models with focus on overall animal health, as well as hematologic toxicities.

Each structure is given as a SMILES string.

As for `CCN(CC)CCCC(=O)O[C@@H](C(=O)O[C@H]1C[C@@]2(O)[C@@H](OC(=O)c3ccccc3)[C@@H]3[C@]4(OC(C)=O)CO[C@@H]4C[C@H](O)[C@@]3(C)C(=O)[C@H](O)C(=C1C)C2(C)C)[C@@H](NC(=O)OC(C)(C)C)c1ccccc1.Cl` [Compound 3, 2′-O-(4-Diethylaminobutanoyl) DTX Hydrochloride], in the data set on MDA-MB-231 xenograft, the “conversion of prodrug to docetaxel in tissue (docetaxel/Compound 3 ratio)” value was “sustained conversion of the Compound 3 to docetaxel at the tumor site”. Besides, the “Percentage of Hydrolysis (% DTX formation)” value in data set [1] (pH 2.5, 0 h) was found to be 0.00%; in data set [1] (pH 2.5, 5 h), 0.00%; in data set [1] (pH 2.5, 24 h), 0.00%; in data set [1] (pH 2.5, 48 h), 0.00%; in data set [1] (pH 2.5, 96 h), 0%; in data set [1] (pH 7.5, 0 h), 0.00%. For the same compound, the “Percentage of Hydrolysis (% DTX formation)” value in data set [1] (pH 7.5, 5 h) is listed as 45.76%; in data set [1] (pH 7.5, 24 h) it was 100.00%; in data set [1] (pH 7.5, 48 h) it was 100.00%; in data set [1] (pH 7.5, 96 h), 100%.
Take `CC(=O)O[C@@]12CO[C@@H]1C[C@H](O)[C@@]1(C)C(=O)[C@H](O)C3=C(C)[C@@H](OC(=O)[C@H](OC(=O)CCCN(C)C)[C@@H](NC(=O)OC(C)(C)C)c4ccccc4)C[C@@](O)([C@@H](OC(=O)c4ccccc4)[C@H]21)C3(C)C.Cl` [Compound 4, 2′-O-[4-(N,N-Dimethylamino)butanoyl] DTX Hydrochloride]: the “Percentage of Hydrolysis (% DTX formation)” value is on record as 0.00% in data set [1] (pH 2.5, 0 h); 0.00% in data set [1] (pH 2.5, 5 h); 0.00% in data set [1] (pH 2.5, 24 h); 0.00% in data set [1] (pH 2.5, 48 h); 0% in data set [1] (pH 2.5, 96 h); 0.00% in data set [1] (pH 7.5, 0 h). The “Percentage of Hydrolysis (% DTX formation)” value in data set [1] (pH 7.5, 5 h) is given as 76.07%; in data set [1] (pH 7.5, 24 h), 100.00%; in data set [1] (pH 7.5, 48 h), 100.00%; in data set [1] (pH 7.5, 96 h), 100%.
For `CC(=O)O[C@@]12CO[C@@H]1C[C@H](O)[C@@]1(C)C(=O)[C@H](O)C3=C(C)[C@@H](OC(=O)[C@H](O)[C@@H](NC(=O)OC(C)(C)C)c4ccccc4)C[C@@](O)([C@@H](OC(=O)c4ccccc4)[C@H]21)C3(C)C` [docetaxel], the “maximum tolerated dose for weekly treatment” value in data set [2] turned out to be 20 mpk. For the same compound, the “treatment related toxicity (body weight)” value in the data set with SUM-159 xenograft is “severe”. In data set [3], the “Activated partial thromboplastin time (APTT)” value is given as “shortened”. The compound also had an MTD in data set [4] of 20 mg/kg.
